From patent publication US20260294871A1, “PHARMACEUTICAL COMBINATIONS AND COMPOSITIONS THEREOF COMPRISING ANTIBACTERIAL AGENTS” (priority 2023, published 2026)
Where two headings read alike, the source gives them in different places.

Tests used:
[1] = tested on: Stenotrophomonas maltophilia; assay: MIC by broth microdilution against Stenotrophomonas maltophilia; assay type: cell-based; settings: highly resistant strains
Protocol: (§1) In a typical study MIC tests were performed by broth microdilution in line with CLSI susceptibility testing standards. Bacterial inocula were prepared at ca. 1×10^6 CFU/mL by diluting 100-fold a 0.5 McFarland suspension in CA-MHB with TES. Microtiter plate wells containing 50 μL of antibacterial solutions at 2×the final concentrations were diluted 2-fold with 50 μL of inoculum to give a final inoculum of ca. 5×10^5 CFU/mL and desired test concentrations of antibacterial agents. Test microtiter plates were incubated according to CLSI guidelines and read visually. MIC values corresponded to the first well with no visible growth.
The results of antibacterial activity of amikacin, Ceftazidime-avibactam, Ceftriaxone with sulbactam and EDTA, Meropenem and Meropenem with avibactum and EDTA against highly resistant strains of Stenotrophomonas maltophilia are given in Table 8.

E. coli = settings: cited from earlier work
[2] = tested on: Non-Enterobacteriaceae (non-fermenter isolates); assay: MIC by broth microdilution against Non-Enterobacteriaceae; assay type: cell-based
Protocol: as §1

Acinetobacter baumannii = assay: MIC by broth microdilution against Acinetobacter baumannii; assay type: cell-based
Protocol: as §1
The results of antibacterial activity of amikacin, Ceftazidime-avibactam, Ceftriaxone with sulbactam and EDTA, Meropenem and Meropenem with avibactum and EDTA against highly resistant strains of Acinetobacter baumannii are given in Table 7.

K. pneumoniae = assay: MIC by broth microdilution against Klebsiella; assay type: cell-based, Klebsiella pneumoniae
Protocol: as §1
The results of antibacterial activity of amikacin, Ceftazidime-avibactam, Ceftriaxone with sulbactam and EDTA, Meropenem and Meropenem with avibactam and EDTA against highly resistant strains of Klebsiella (93. 3% Mem NS) are given in Table 4.

[3] = tested on: all grouped isolates from India; assay: MIC by broth microdilution against all grouped isolates from India; assay type: cell-based, resistant bacterial strains
Protocol: as §1
There was a marked improvement in antibacterial activity, compared to MEM alone, observed for the triple combinations, for MEM/AVI [4 mg/L]/EDTA [10 mM] and MEM/AVI [4 mg/L]/EDTA [20 mM], the reduction in MIC90 was 0.06 μg/mL and ≤0.002 μg/mL, respectively.

SMILES: C[C@@H](O)[C@H]1C(=O)N2C(C(=O)O)=C(S[C@@H]3CN[C@H](C(=O)N(C)C)C3)[C@H](C)[C@H]12 [Meropenem, (4R,5S,6S)-3-(((3S,5S)-5-(dimethylcarbamoyl)pyrrolidin-3-yl)thio)-6-((R)-1-hydroxyethyl)-4-methyl-7-oxo-1-azabicyclo[3.2.0]hept-2-ene-2-carboxylic acid]
- MIC50 ([1]; Stenotrophomonas maltophilia, read-out: MIC50): > 32 µg/mL
- MIC90 ([1]; Stenotrophomonas maltophilia, read-out: MIC90): > 32 µg/mL
- MIC50 [1]: >32 µg/mL
- MIC90 [1]: >32 µg/mL
- CLSI Range of MIC (E. coli): 0.008 to 0.06 µg/mL
- MIC50 [2]: > 32 µg/mL
- MIC90 [2]: > 32 µg/mL
- MIC50 ([2]; highly resistant strains): >32 µg/mL
- MIC90 ([2]; highly resistant strains): >32 µg/mL
- MIC90 ([2]; highly resistant strains, listed as MEM): > 32 µg/mL
- MEM-NS isolates ([2]; n=284): 88.9%
- MIC90 (Acinetobacter baumannii; Acinetobacter baumannii): > 32 µg/mL
- MIC50 (Acinetobacter baumannii; Acinetobacter baumannii, highly resistant strains): > 32 µg/mL
- MIC90 (Acinetobacter baumannii; MEM-NS isolates (n=163)): > 32 µg/mL
- MIC90 (Acinetobacter baumannii; highly resistant strains): >32 µg/mL
- MEM-NS isolates (Acinetobacter baumannii; n=163): 98.2%
- MIC50 (K. pneumoniae; Klebsiella pneumoniae, MEM-NS isolates (n=112), read-out: MIC50): > 32 µg/mL
- MIC90 (K. pneumoniae; Klebsiella pneumoniae, highly resistant strains, read-out: MIC90): > 32 µg/mL
- MIC90 (K. pneumoniae; MEM-NS isolates (n=112)): > 32 µg/mL
- MIC50 (K. pneumoniae; highly resistant strains): >32 µg/mL
- MIC90 (K. pneumoniae; highly resistant strains): >32 µg/mL
- MEM-NS isolates (K. pneumoniae; n=112, listed as MEM): 93.3%
- MIC50 [3]: > 32 µg/mL
- MIC90 [3]: > 32 µg/mL
- MIC90 ([3]; MEM-NS isolates (n=534)): > 32 µg/mL
- MIC50 ([3]; all grouped isolates (606)): >32 µg/mL
- MIC90 ([3]; all grouped isolates (606)): > 32 µg/mL
